Measured values: patent US5247084A, “Derivatives of p-guanidinobenzoic acid” (priority 1985, dated 1993)

test system: not listed separately; test: acute toxicity test in mice by intravenous administration; conditions: mouse, in vivo

SMILES | LD50 [mg/kg]
N=C(N)Nc1ccc(C(=O)Sc2cc(O)cc(Cl)c2)cc1 [3-chloro-5-hydroxy (Y = sulfur atom)] | 50 to 150
CCS(=O)(=O)Oc1cc(Cl)cc(SC(=O)c2ccc(NC(=N)N)cc2)c1 | 50 to 150
CC(=O)O.CCS(=O)(=O)Oc1cc(Cl)cc(OC(=O)c2ccc(NC(=N)N)cc2)c1 [Example 75, p-guanidinobenzoic acid 3-chloro-5-ethanesulfonyloxyphenyl ester acetate] | 50 to 150
CCN(CC)S(=O)(=O)c1ccc(SC(=O)c2ccc(NC(=N)N)cc2)cc1Cl | 50 to 150

target: T1, elastase from human neutrophil (Homo sapiens, UniProt P08246); test: Inhibitory effect on elastase (spectrophotometric method, substrate Suc-Ala-Pro-Ala-pNA); type: biochemical; conditions: not given
T1 construct: using elastase from human neutrophil; from tissue; host or cells: human neutrophil
T1 sequence (P08246 30-247 limits assumed): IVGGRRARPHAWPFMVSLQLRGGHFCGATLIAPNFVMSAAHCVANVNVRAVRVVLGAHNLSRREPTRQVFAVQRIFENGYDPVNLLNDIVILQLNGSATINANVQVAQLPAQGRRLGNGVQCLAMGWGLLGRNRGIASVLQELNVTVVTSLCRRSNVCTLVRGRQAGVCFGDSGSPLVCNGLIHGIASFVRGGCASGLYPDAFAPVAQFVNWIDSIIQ

SMILES | IC50 [µM]
CN(C)C(=O)Oc1cc(Cl)cc(OC(=O)c2ccc(NC(=N)N)cc2)c1 [Example 87] | 0.76

same assay, conditions: Y represents a sulfur atom; pH 8.0, 37° C., 30 minutes; read-out: Elastase Inhibitory Effect, IC50

SMILES | IC50 [µM]
N=C(N)Nc1ccc(C(=O)Sc2cccc(Cl)c2)cc1 [Example 133] | 0.3
COC(=O)c1ccccc1SC(=O)c1ccc(NC(=N)N)cc1 [Example 141] | 2.6
COc1cccc(SC(=O)c2ccc(NC(=N)N)cc2)c1 [Example 129] | 6.4
N=C(N)Nc1ccc(C(=O)Sc2c(Cl)cccc2Cl)cc1 [Example 136] | 45

same assay, conditions: Y represents an oxygen atom; pH 8.0, 37° C., 30 minutes; read-out: Inhibitory Effect on Elastase, IC50

SMILES | IC50 [µM]
CC(=O)O.CCS(=O)(=O)Oc1cc(Cl)cc(OC(=O)c2ccc(NC(=N)N)cc2)c1 [Example 75, p-guanidinobenzoic acid 3-chloro-5-ethanesulfonyloxyphenyl ester acetate] | 1.1
Cc1cc(OC(=O)c2ccc(NC(=N)N)cc2)cc(OC(=O)c2ccc(NC(=N)N)cc2)c1 [Example 70] | 6.4
N=C(N)Nc1ccc(C(=O)Oc2cccc([N+](=O)[O-])c2)cc1 [Example 107] | 11
N=C(N)Nc1ccc(C(=O)Oc2cccc(S(N)(=O)=O)c2)cc1 [Example 89] | 65
N=C(N)Nc1ccc(C(=O)Oc2cc(O)cc(C(=O)NCc3ccccc3)c2)cc1 [Example 115] | 88
CC(C)S(=O)(=O)Oc1cc(Cl)cc(OC(=O)c2ccc(NC(=N)N)cc2)c1 [Example 76] | 1.1
COCc1cc(O)cc(OC(=O)c2ccc(NC(=N)N)cc2)c1 [Example 12] | > 200
Cc1cc(O)cc(OC(=O)c2ccc(NC(=N)N)cc2)c1 [Example 109] | 160
N=C(N)Nc1ccc(OC(=O)c2ccc(NC(=N)N)cc2)cc1 [Example 117] | > 100
CN(C)S(=O)(=O)c1ccc(NC(=O)c2cc(Cl)cc(OC(=O)c3ccc(NC(=N)N)cc3)c2)cc1 [Example 103] | 0.95
N=C(N)Nc1ccc(C(=O)Oc2cccc(F)c2)cc1 [Example 29] | 21
CC(=O)c1cc(OC(=O)c2ccc(NC(=N)N)cc2)cc(OC(=O)c2ccc(NC(=N)N)cc2)c1 [Example 66] | 72
N=C(N)Nc1ccc(C(=O)Oc2cccc(C(=O)c3ccccc3)c2)cc1 [Example 54] | 92
COc1cc(OC(=O)c2ccc(NC(=N)N)cc2)cc(C(=O)N2CCS(=O)(=O)C2)c1 [Example 122] | 12
N=C(N)Nc1ccc(C(=O)Oc2cc(Cl)cc(OS(=O)(=O)c3ccccc3)c2)cc1 [Example 77] | 0.8
N=C(N)Nc1ccc(C(=O)Oc2ccccc2Br)cc1 [Example 42] | 16
CCCOc1ccc(C(C)=O)c(OC(=O)c2ccc(NC(=N)N)cc2)c1 [Example 50] | 54
N=C(N)Nc1ccc(C(=O)Oc2cc(Cl)cc(C(=O)Nc3cccnc3)c2)cc1 [Example 86] | 0.93
N=C(N)Nc1ccc(C(=O)Oc2ccc([N+](=O)[O-])cc2)cc1 [Example 108] | 120
N=C(N)Nc1ccc(C(=O)Oc2cccc(F)c2F)cc1 [Example 32] | 3.7
COC(=O)Cc1cccc(OC(=O)c2ccc(NC(=N)N)cc2)c1Cl [Example 24] | 50
N=C(N)Nc1ccc(C(=O)Oc2cc(Cl)cc(OCc3ccccc3)c2)cc1 [Example 119] | 4.7
N=C(N)Nc1ccc(C(=O)Oc2cccc(Cl)c2)cc1 [Example 35] | 8

SMILES | IC50 [µM]
N=C(N)Nc1ccc(C(=O)Oc2cc(Cl)cc(COc3cccnc3)c2)cc1 [Example 121] | 1.1
CN(C)S(=O)(=O)c1ccc(OC(=O)c2ccc(NC(=N)N)cc2)cc1Cl [Example 90] | 140
N=C(N)Nc1ccc(C(=O)Oc2ccccc2C(F)(F)F)cc1 [Example 45] | 23
CC(C)OC(=O)c1ccc(Cl)cc1OC(=O)c1ccc(NC(=N)N)cc1 [Example 20] | 14
COc1cc(OC)cc(OC(=O)c2ccc(NC(=N)N)cc2)c1 [Example 10] | 40
CCC(=O)Oc1cc(Cl)cc(OC(=O)c2ccc(NC(=N)N)cc2)c1 [Example 62] | 0.38
N=C(N)Nc1ccc(C(=O)Oc2c(Cl)cccc2Cl)cc1 [Example 38] | 2
CC(=O)c1ccc(Cl)cc1OC(=O)c1ccc(NC(=N)N)cc1 [Example 51] | 1.8
CC(C)OC(=O)c1cccc(OC(=O)c2ccc(NC(=N)N)cc2)c1Cl [Example 21] | 2
N=C(N)Nc1ccc(C(=O)Oc2c(F)c(F)c(F)c(F)c2F)cc1 [Example 33] | 5.8
CCS(=O)(=O)Nc1cc(Cl)cc(OC(=O)c2ccc(NC(=N)N)cc2)c1 [Example 106] | 15
N=C(N)Nc1ccc(C(=O)Oc2cc(NC(=N)N)ccc2Cl)cc1 [Example 118] | 47
N=C(N)Nc1ccc(C(=O)Oc2ccccc2Cl)cc1 [Example 34] | 27
N=C(N)Nc1ccc(C(=O)Oc2cc(Cl)cc(COc3ccc(S(=O)(=O)N4CCOCC4)cc3)c2)cc1 [Example 151, P-guanidinobenzoic acid 3-chloro-5-(4-morpholinosulfonyl)phenoxymethylphenylester acetate] | 1.4
CCN(CC)S(=O)(=O)c1ccc(OC(=O)c2ccc(NC(=N)N)cc2)cc1 [Example 93] | 58
N=C(N)Nc1ccc(C(=O)Oc2cc(Cl)ccc2C(=O)CC2CCCC2)cc1 [Example 58] | 1.9
CS(=O)(=O)Nc1ccc(Cl)c(OC(=O)c2ccc(NC(=N)N)cc2)c1 [Example 105] | 8.5
CCS(=O)(=O)Oc1cc(C)cc(OC(=O)c2ccc(NC(=N)N)cc2)c1 [Example 78] | 27
COc1ccc(C(C)=O)c(OC(=O)c2ccc(NC(=N)N)cc2)c1 [Example 49] | 40
CNC(=O)c1cccc(OC(=O)c2ccc(NC(=N)N)cc2)c1Cl [Example 81] | 6
CCCN(CCC)S(=O)(=O)c1ccc(OC(=O)c2ccc(NC(=N)N)cc2)cc1 [Example 97] | 58
CCC(=O)c1ccc(Cl)cc1OC(=O)c1ccc(NC(=N)N)cc1 [Example 52] | 1.6

same assay, conditions: at 50 μg/ml; Y represents a sulfur atom; read-out: Elastase Inhibitory Effect, Inhibition %

SMILES | inhibition at 50 µg/mL [%]
N=C(N)Nc1ccc(C(=O)Sc2cccc(Cl)c2)cc1 [Example 133] | 81.2
COC(=O)c1ccccc1SC(=O)c1ccc(NC(=N)N)cc1 [Example 141] | 96.3
COc1cccc(SC(=O)c2ccc(NC(=N)N)cc2)c1 [Example 129] | 89.2
N=C(N)Nc1ccc(C(=O)Sc2ccc(Cl)c(Cl)c2)cc1 [Example 137] | 35.5
N=C(N)Nc1ccc(C(=O)Sc2ccc(Cl)cc2)cc1 [Example 134] | 69.5
N=C(N)Nc1ccc(C(=O)Sc2c(Cl)cccc2Cl)cc1 [Example 136] | 64.5
Cc1ccc(SC(=O)c2ccc(NC(=N)N)cc2)cc1 [Example 127] | 29.3

same assay, conditions: at 100 μM; Y represents an oxygen atom

SMILES | inhibition at 100 µM [%]
N=C(N)Nc1ccc(C(=O)Oc2cccc([N+](=O)[O-])c2)cc1 [Example 107] | 87
N=C(N)Nc1ccc(C(=O)Oc2ccc(C(=O)c3ccccc3)cc2)cc1 [Example 55] | 33.3
COCc1cc(O)cc(OC(=O)c2ccc(NC(=N)N)cc2)c1 [Example 12] | 14
CCCNC(=O)c1cc(OC(=O)c2ccc(NC(=N)N)cc2)cc(C(=O)NCCC)c1 [Example 84] | 36
CCc1cccc(OC(=O)c2ccc(NC(=N)N)cc2)c1 [Example 6] | 39.6
N=C(N)Nc1ccc(C(=O)Oc2cc(OC(=O)c3ccc(NC(=N)N)cc3)cc(OC(=O)c3ccc(NC(=N)N)cc3)c2)cc1 [Example 65] | 38
N=C(N)Nc1ccc(C(=O)Oc2cccc(F)c2)cc1 [Example 29] | 81.1
N=C(N)Nc1ccc(C(=O)Oc2cc(O)cc(OC(=O)c3ccc(NC(=N)N)cc3)c2)cc1 [Example 113] | 42
CNC(=O)c1cc(O)cc(OC(=O)c2ccc(NC(=N)N)cc2)c1 [Example 114] | 22
N=C(N)Nc1ccc(C(=O)Oc2ccccc2Br)cc1 [Example 42] | 82.1
COC(=O)Cc1ccc(OC(=O)c2ccc(NC(=N)N)cc2)c(Cl)c1 [Example 25] | 40
N=C(N)Nc1ccc(C(=O)Oc2ccc(C(=O)c3ccccc3)c(Cl)c2Cl)cc1 [Example 57] | 50.5
N=C(N)Nc1ccc(C(=O)Oc2ccc([N+](=O)[O-])cc2)cc1 [Example 108] | 60.1
N=C(N)Nc1ccc(C(=O)Oc2ccc(F)cc2)cc1 [Example 30] | 10.7
COC(=O)c1cc(O)cc(OC(=O)c2ccc(NC(=N)N)cc2)c1 [Example 111] | 45
N=C(N)Nc1ccc(C(=O)Oc2cccc(Cl)c2)cc1 [Example 35] | 87.6
Cc1cccc(OC(=O)c2ccc(NC(=N)N)cc2)c1 [Example 3] | 45.6
COc1ccc(OC(=O)c2ccc(NC(=N)N)cc2)cc1 [Example 9] | 44.4
N=C(N)Nc1ccc(C(=O)Oc2cc(OC(=O)c3ccc(NC(=N)N)cc3)cc(C(=O)NCc3ccccc3)c2)cc1 [Example 85] | 27
N=C(N)Nc1ccc(C(=O)Oc2ccccc2C(F)(F)F)cc1 [Example 45] | 72.4
N=C(N)Nc1ccc(C(=O)Oc2c(Cl)cccc2Cl)cc1 [Example 38] | 89.9
CNC(=O)c1cc(OC(=O)c2ccc(NC(=N)N)cc2)cc(OC(=O)c2ccc(NC(=N)N)cc2)c1 [Example 82] | 38
N=C(N)Nc1ccc(C(=O)Oc2cccc(S(=O)(=O)N3CCCCC3)c2)cc1 [Example 99] | 41
N=C(N)Nc1ccc(C(=O)Oc2c(F)c(F)c(F)c(F)c2F)cc1 [Example 33] | 92.1
N=C(N)Nc1ccc(C(=O)Oc2ccccc2Cl)cc1 [Example 34] | 76.8
COc1cc(OC(=O)c2ccc(NC(=N)N)cc2)ccc1Cl [Example 40] | 39
CN(C)C(=O)c1cccc(OC(=O)c2ccc(NC(=N)N)cc2)c1 [Example 80] | 30
Cc1ccc(OC(=O)c2ccc(NC(=N)N)cc2)cc1 [Example 4-methyl, reference compound] | 28.4
CC(=O)Oc1ccc(OC(=O)c2ccc(NC(=N)N)cc2)cc1 [Example 60] | 27.8
CC(=O)Oc1cccc(OC(=O)c2ccc(NC(=N)N)cc2)c1 [Example 59] | 25.7
